Laboratory results reported in a melting point compilation (Tetko et al.; mined from patent text by program, amines drawn as free bases though some values may be those of a salt).

Row | SMILES | melting point
1 | CCc1cn(C)cc(-c2cccc(C(F)(F)F)c2)c1=O | 95.5 to 96.5 °C
2 | c1ccc2c(c1)nc(-c1ccc3c(c1)OCO3)n2CCC1CCCCC1 | 110 to 111 °C
3 | CC(C)C(=O)CCC(=O)c1ccc(F)cc1 | 47 to 49 °C
4 | CS(=O)(=O)Nc1nccc(Oc2ccc3c(C(=O)Nc4ccc(F)c(C(F)(F)F)c4)cccc3c2)n1 | 246 °C
5 | Cc1ccc(N2CCSC2N)c([N+](=O)[O-])c1 (centres undefined) | 132 to 134 °C
6 | CC(C)[C@H](NC(=O)OCc1csc(N2CCOCC2)n1)C(=O)N[C@@H](Cc1ccccc1)[C@@H](O)C[C@H](Cc1ccccc1)NC(=O)OCc1cncs1 | 146 to 148 °C
7 | COc1ccc(C=C2c3ccccc3CCc3ccccc32)cc1N | 62.7 °C
8 | COc1c(C#N)c(C)cc2c1C(C)(C)CCC2(C)C | 71 to 73 °C
9 | CCCCc1ncc([N+](=O)[O-])c(O)n1 | 67 to 69 °C
10 | Nc1nc2c(s1)CC(CNC(=O)[C@@H]1CCCN1C(=O)[C@@H](CC1CCCCC1)NS(=O)(=O)Cc1ccccc1)CC2 (some centres undefined) | 203 to 205 °C
11 | CCCc1cc2c(c3ccc(O)cc13)OCc1cc(O)ccc1-2 | 86 to 95 °C
12 | Clc1ccc2c(c1)C1(CN3CCC(Nc4ncccn4)CC3)CC2c2ccccc21 (centres undefined) | 212 to 214 °C
13 | Cn1c(=O)c2c(N)nccc2n(C)c1=O | 229 to 230 °C
14 | CC(=O)c1ccc(N2CCN(c3cccc(C)c3)CC2)nn1 | 136 °C
15 | Clc1ccc2nc3c(nc2c1)N1CCCCC1CO3 (centres undefined) | 147 to 149 °C
16 | CC(C)[C@@H]1CC[C@@H](C)C[C@@]1(O)CO | 48 to 50 °C
17 | CCC1(NC(=O)C(Br)CCl)COCOC1 (centres undefined) | 95 to 109 °C
18 | O=C(O)c1ccc(NCCCCCCOc2ccc3ccccc3c2)cc1 | 157 to 159 °C
19 | COc1ncccc1NC(=O)Nc1ccc(N2CCN(C(=O)Nc3ccc(OCCO)cc3C(F)(F)F)CC2)cc1 | 120 to 123 °C
20 | c1ccc(-c2ccc(OCC3CO3)cc2)cc1 (centres undefined) | 80.2 to 82.9 °C
21 | CC(=O)OCCCCN1CCC(CNC(=O)[C@@H]2CCCN2S(=O)(=O)c2ccc(Cl)c(COc3cccc4c(-n5ccnc5)cc(C)nc34)c2Cl)CC1 | 86 °C
22 | CCc1ccc(-c2ccc(NC(=O)OC(C)(C)C)c([N+](=O)[O-])c2)cc1 | 94 to 99 °C
23 | CCSc1nc(O)ns1 | 129 °C
24 | CCOc1ccc(C=CC(=O)c2c(O)cc(OC)cc2OC)cc1 | 136 °C
25 | Cc1c2n(c3ccccc13)C(=O)C(C)(Cc1ncn(C(c3ccccc3)(c3ccccc3)c3ccccc3)c1C)CC2 (centres undefined) | 116 to 118 °C

Row | SMILES | melting point
26 | CCCC(O)P(=O)(O)CCCN (centres undefined) | 188 °C
27 | CCOC(=O)c1c2ccc(Cl)cc2c(-c2ccccc2)n1CCCOS(C)(=O)=O | 91 to 92 °C
28 | O=C(CCCO)NCc1cccc(Nc2n[nH]c3ncnc(Nc4cccc(Cl)c4)c23)c1 | 182 to 184 °C
29 | CC(C)[C@H](NC(=O)[C@H](Cc1ccccc1)NC(=O)OCc1ccccc1)[C@@H](O)c1c(-c2ccccc2)c1=O | 175 to 177 °C
30 | CCCC[C@]1(CC)CS(=O)(=O)c2cc(O)c(O)cc2[C@@H](c2ccccc2)N1 | 117 to 118 °C
31 | COc1cccc(-c2nc(Cl)nc(Nc3ccc(O)cc3)n2)c1 | 164 °C
32 | CS(=O)(=O)c1ccc(-c2cnn(-c3ccc(F)c(F)c3)c(=O)c2C2CCCCC2)cc1 | 80 to 83 °C
33 | O=C(O)c1ccc2c(c1)CCCS2(=O)=O | 246 to 249 °C
34 | Cc1cn(N)c2ccccc12 | 60 to 63 °C
35 | CN1CCN(c2c(F)c(N)c3c(=O)c(C(=O)O)cn(C4CC4)c3c2F)CC1 | 247 to 248 °C
36 | Cc1nn(-c2c(Cl)cc(C(F)(F)F)cc2Cl)c(Cl)c1C=O | 201 °C
37 | O=C(c1cccnc1)N1CC2CCC(C1)O2 | 48 to 49.5 °C
38 | COC(=O)C(C)N(C(=O)CCl)c1c(C)cccc1Cl (centres undefined) | 75 to 78 °C
39 | C#Cc1cnc2ccc(OC(SC)C(=O)NC(C)(C#N)CO)cc2c1 (centres undefined) | 78 to 80 °C
40 | CCCCCCCCCCCCCCCCOc1cc(O)c(NC(C)=O)cc1C12CC3CC(CC(C3)C1)C2 | 146 to 148 °C
41 | CCOC(=O)C1(CS(=O)(=O)c2ccc(OC)cc2)CO1 (centres undefined) | 77 to 79 °C
42 | O=c1[nH]c(=O)n2c(c1-c1ccccc1)SCCC2 | > 300 °C
43 | O=C(O)c1ccc(OC2=C3N=C4CCCCC4=C3C(Cc3ccc(Br)cc3)C=C2)o1 (centres undefined) | 156 to 158 °C
44 | CNC(=O)c1ccc(-c2coc3ccc(-c4nnc(C)o4)cc23)c(Cl)c1 | 250 to 251 °C
45 | COc1ccccc1C(=O)c1ccc(OC)c(Cl)c1Cl | 94 to 96 °C
46 | CCCNCC(O)COc1ccccc1CCCc1cccc2[nH]ccc12 (centres undefined) | 99 to 100 °C
47 | Brc1ccc2c3nc4ccccc4[nH]c-3nc2c1 | > 300 °C
48 | CC1(C)COC(=O)N1c1nc(-c2ccc(Cl)c(Cl)c2)cs1 | 134 to 137 °C
49 | Cc1ccc(C(Br)C(Br)C(=O)c2ccccc2)cc1 (centres undefined) | 84 °C
50 | CCCn1c(=O)n2c(=O)[nH]nc2c2c1ncn2C | 299 to 301 °C

Row | SMILES | melting point
51 | CC(C)(C)OC(=O)N[C@H](CNc1ccccc1N)C(=O)O | 158 to 160 °C
52 | O=CCC(=O)Nc1ccccc1 | 150 to 153 °C
53 | CC(=O)Nc1cc(C=CN(C)C)c([N+](=O)[O-])cn1 | 193 to 196 °C
54 | CSCCSC1=C(O)CC(C)(C)CC1=O | 57 to 59 °C
55 | COc1ccc(N2C(=O)N(c3cccc(C(N)=O)c3)c3nc(Nc4ccccc4)ncc3C2C)cc1 (centres undefined) | 268 to 273 °C
56 | O=C(c1ccc(F)cc1)N1Cc2c(-c3ccc(F)cc3)ncn2-c2ccccc21 | 230 to 231 °C
57 | CCCc1c(OCCCSc2ccc(C(C)=O)c(OCCCC(=O)OCC)c2CCC)ccc(C(C)=O)c1O | 87 to 88 °C
58 | Cn1cc(C(=O)NCc2ccc(Cl)cc2)c(=O)c2cc(CN3CCOCC3)cc(C#Cc3ccccn3)c21 | 234 to 236 °C
59 | Cc1c(C=C(C#N)C#N)cc(C(C)(C)C)c(O)c1Br | 144 °C
60 | CNC(=O)c1cc2ccc3c(c2c(-c2ccc4c(c2)OCO4)c1CO)OCO3 | 233 to 235 °C
61 | COc1ccc(C(=O)C2CCN(C(C)=O)CC2)c(O)c1 | 138 to 140 °C
62 | N=C(N)NC(=O)c1cn(-c2ccc3ccccc3n2)c2ncccc12 | 242 °C
63 | COc1ccc(C=Cc2ccc(CBr)c(Cl)c2)c(Cl)c1 | 106 to 108 °C
64 | COc1c(Cl)cc(Br)cc1Cl | 67 to 68 °C
65 | COC(=O)/C(=C/C=C/c1cc2cc(Cl)c(Cl)cc2[nH]1)OC | 203 to 204 °C
66 | O=C(O)CCCn1ccn(C2CCc3ccccc3C2)c1=S (centres undefined) | 156 to 158 °C
67 | CCCc1nc(C(C)(C)O)c(C(=O)OCC)n1Cc1ccc(-c2ccccc2C(=O)OC(C)(C)C)cc1 | 90 to 91 °C
68 | CCCCCCNC(=O)Nc1cccc(Oc2ccc3nc(COc4ccc(CC5SC(=O)NC5=O)cc4)n(C)c3c2)c1 (centres undefined) | 144 to 147 °C
69 | COCCOc1cc(Oc2ccc(C(F)(F)F)cn2)ccc1CCCOc1cc(CCC(=O)O)n(C)n1 | 110 °C
70 | CC(C)(S)C(NC(=O)c1ccc(Cl)cc1)C(=O)O (centres undefined) | 174 °C
71 | CCOc1cc2c(cc1OCC)[C@@H]1CCCC[C@@H]1N=C2c1ccc(O)nc1 (racemic) | 211 to 213 °C
72 | Cc1oc(-c2ccco2)nc1COc1ccc(CON=C(CCCCCCC(=O)O)c2ccccc2)cc1 | 75 to 77 °C
73 | CC1(C)CC(OC(=O)c2ccccc2)CC(C)(C)N1OC(=NC1CCCCC1)NC1CCCCC1 | 50 to 57 °C
74 | Nc1c2c(nc3cc(Cl)ccc13)CCCC2=O | 285 to 287 °C
75 | CC(C)(C)c1cc(SC2(Sc3cc(C(C)(C)C)c(O)c(C(C)(C)C)c3)CCCCC2)cc(C(C)(C)C)c1O | 195 to 197 °C

Row | SMILES | melting point
76 | CC(C)c1ccc(-n2nc(O)c3[nH]c4cc(Cl)ccc4c(=O)c3c2=O)cc1 | 323 to 326 °C
77 | Cc1ccc2c(c1)N=C(NCc1cccnc1)c1ccccc1N2 | 186 to 187 °C
78 | O=C(NCc1ccncc1)c1[nH]c2ccc(Cl)cc2c1S(=O)c1ccccc1 (centres undefined) | 233 to 235 °C
79 | CCCNc1nc(C#N)c(C#N)nc1-c1cccc(Cl)c1 | 120 to 121 °C
80 | O=C1CC(C(F)(F)F)CC(=O)N1c1ccc(Br)cc1 | 163 to 164 °C
81 | CC(C)C(C(=O)O)N(Cc1cccnc1)S(=O)(=O)c1ccc(-c2ccc(NC(=O)c3cc4ccccc4o3)cc2)cc1 (centres undefined) | 261 to 262 °C
82 | Cc1oc(-c2ccco2)nc1COc1ccc(COc2ncccc2CC(=O)O)cc1 | 151 to 152 °C
83 | COc1ccc(S(=O)(=O)NC=NCCSCc2csc(NC=NN)n2)cc1 | 68 to 76 °C
84 | CNC(=S)Nc1ccc(Oc2sc(C(N)=O)c3c2-c2c(cnn2C)CC3)cc1 | 199 to 201 °C
85 | CCOCc1nc2c(N)nc3cc(N4CCC4=O)ccc3c2n1CCCOC(C)C | 185 to 186 °C
86 | CC(C)c1nc(-c2ccccn2)ncc1-c1ccc(Cl)cc1 | 145 °C
87 | Cc1noc(=O)c2ccc(NC(=O)C(=O)CC3(c4cccc(C(F)(F)F)c4F)CC3)cc12 | 117 to 118 °C
88 | CCSc1ncc(Oc2ccc(Cl)c(Cl)c2)cc1C#N | 80 to 81 °C
89 | CS(=O)(=O)c1cc([N+](=O)[O-])c(C(=O)O)cc1N(CCBr)CCBr | 174 to 176 °C
90 | CS(=O)(=O)c1ccc(-c2cnn(-c3ccc(Cl)s3)c(=O)c2-c2ccc(Cl)cc2)cc1 | 249 to 251 °C
91 | COc1ccc(OCc2ccccn2)cc1/C=C/c1cc(/C=C/c2ccc3[nH]ccc3c2)n[nH]1 | 116 to 122 °C
92 | COc1cc2c(cc1OC)CC(N(CC(=O)O)C(=O)C(C)CSC(C)=O)C2 (centres undefined) | 135 to 137 °C
93 | O=CNCC=C(c1ccc(-c2ccccc2)cc1)c1ccc(-c2ccccc2)cc1 | 171 to 173 °C
94 | O=C(O)Cn1cc(Cc2nc3c(F)c(F)cc(F)c3s2)c2cc(Cl)ccc21 | 188 to 189 °C
95 | CCCc1c(O)ccc2c1OCCC2=O | 126 to 129 °C
96 | COC(=O)CCC(C#N)(CCC(=O)OC)c1cccc(Cl)c1 | 78.5 to 80 °C
97 | COc1ccc(C#CCCCCCCC#CCO)cc1OC | 39 to 41 °C
98 | COc1ccccc1-c1coc2cc(O)ccc2c1=O | 222 to 224 °C
99 | Cc1nc2cnccc2n1-c1ccc(C=Cc2cccc(OCc3nc4cc(F)ccc4s3)c2)cc1 | 178 to 181 °C
